The source of these data is publication PMC9423655, “Huntington’s disease phenotypes are improved via mTORC1 modulation by small molecule therapy” (PLoS ONE, 2022).

Broadly, the mortality is the percentage killed. Higher therefore signals fewer survivors.

This assay has as its system N171-82Q HD mice. In words: Isoprenaline cardiac stress: survival, weight, echocardiography, heart weight, cardiomyocyte area, fibrosis. Type of assay: in vivo, N171-82Q mice. On the procedure:
The initial trial consisted in one week of oral dosing in 12 weeks old N171-82Q males. The chronic 6 weeks treatment (Veh n = 15, NV-5297 n = 14) took place from 6 to 12 weeks of age. The cardiac stress took place in animals from 10 to 12 weeks of age (Veh-Sal n = 9, NV-Sal n = 10, Veh-Iso n = 16, NV-Iso n = 11).
Mice were anesthetized with 2% isoflurane and restrained on a stage with electrocardiogram (EKG) sensors. Transthoracic echocardiograms were performed using the Vevo 3100 Imaging System with a linear array MX550D transducer. Images were acquired by an experienced echocardiographer and then analyzed offline using the Vevo LAB analysis software. Parasternal long axis views and short axis views were used to assess left ventricular function. Measurements were performed to evaluate left ventricular dimensions during both systole and diastole of the cardiac cycle. The Vevo LAB left ventricle [LV] analysis tool, LV trace, was used to calculate cardiac output [CO] (heart rate ∙ stroke volume), fractional shortening [FS] (ventricle diameter at the end of the diastole–ventricle diameter at the end of the systole), ejection fraction [EF] (percentage of blood ejected by the left ventricle by heart beat), stroke volume (SV) (blood volume ejected from the left ventricle per beat), heart rate [HR] (bpm), left ventricular mass [LVmass], dimensions and volumes. Both imaging and analysis were performed by an operator blinded to the mice experimental treatment.
Cardiomyocyte area was measured in wheat germ agglutinin-labelled heart sections as previously described. Briefly, sections were cleared and rehydrated through xylene and ethanol, then labelled with WGA conjugated to Alexa Fluor 594 (8 μg/ml, Biotium) per manufacturer’s protocol. Sections were counterstained with Hoechst stain (2 μg/ml, Thermo Scientific). High-power digital images were collected such that the entirety of the left ventricular free wall was represented. A grid was superimposed over each image in ImageJ to randomly select cardiomyocytes sectioned perpendicular to the long axis, and the area of those cells was measured manually. At least 240 cardiomyocytes were measured per section. Cardiomyocyte areas were averaged for each treatment group.
The percent of area occupied by fibrotic tissue was calculated as previously described. Briefly, heart sections were cleared and rehydrated through xylene and ethanol. Sections were counterstained with Weigert’s haematoxylin (Sigma) per manufacturer’s protocol. Collagen was labelled by staining to equilibrium with Picrosirius red (0.1% Direct Red 80, Sigma, in saturated picric acid, Sigma). Bright field and corresponding polarized light digital images were taken such that the entirety of the left ventricular free wall was represented. Image threshold was adjusted to highlight either the entire tissue (bright field) or the fibrotic tissue (polarized) in ImageJ, and percent area occupied by fibrotic tissue was calculated from these images. Large vessels were excluded from the analysis.
Isoprenaline (Sigma) was dissolved in sterile PBS and administered by continuous infusion using implantable mini-osmotic pumps (Alzet) at a dose of 30 mg/kg body mass/day. Pumps were filled and primed in a sterile environment and inserted under 2.5% isoflurane anesthesia into the right dorsal subcutaneous space caudal to the scapulae.
We next tested if daily NV-5297 dosing in HD mice could enable cardiac adaptation to chronic stress. In this experiment, the NV-Sal and Veh-Sal groups have an osmotic pump implant on their back. The presence of this pump makes the echocardiography more challenging, justifying the difference to the baseline groups measurements along with the smaller sample size for this experiment. For this study, we found no significant […] and therefore we focused on the changes within the vehicle-treated groups and within the NV-5297-treated groups. […]

The mark [1] stands for this setting: N171-82Q mice under isoprenaline cardiac stress.

Compound `CC(C)(C[C@H](N)C(=O)O)C(F)(F)F` [NV-5297, (S)-2-amino-5,5,5-trifluoro-4,4-dimethylpentanoic acid] had a mortality (Iso-stressed N171-82Q mice (isoprenaline 30 mg/kg/day, 14 days), NV-5297 160 mg/kg oral daily) of 45%. Under setting [1], the “body weight over trial duration” value is given as “maintained their weight”, the “cardiac output from baseline” value is recorded as “increase”, the cardiomyocyte area result is “increased” and the “ejection fraction from baseline” value is on record as “increased”. For the same compound, under setting [1], the “fractional shortening from baseline” value is given as “increased”, the heart fibrosis result is reported as “devoid of fibrosis”, the heart mass entry is reported as “elevated” and the “stroke volume from baseline” value was “increased”. Moreover, the heart rate result (N171-82Q mice under isoprenaline cardiac stress (NV-Iso)) was “maintain a normal heart rate”. The survival (N171-82Q mice with saline implant (NV-Sal group), NV-5297 160 mg/kg oral daily) is 100%.
